“Also recorded” adds a separate entry of the source. Where two headings read alike, the source gives them in different places. Square brackets hold non-standard residues; d marks the D form. Peptide text beside a SMILES is read from it. Orn(N5-OH,N5-Ac) = CC(=O)N(O)CCC[C@H](N)C(=O)O
Legend:
[1] = target: T1, FpuA (Bc_4528) (Bacillus cereus, UniProt Q817L3); assay type: binding, B. cereus ATCC 14579
T1 sequence (Q817L3 19-324): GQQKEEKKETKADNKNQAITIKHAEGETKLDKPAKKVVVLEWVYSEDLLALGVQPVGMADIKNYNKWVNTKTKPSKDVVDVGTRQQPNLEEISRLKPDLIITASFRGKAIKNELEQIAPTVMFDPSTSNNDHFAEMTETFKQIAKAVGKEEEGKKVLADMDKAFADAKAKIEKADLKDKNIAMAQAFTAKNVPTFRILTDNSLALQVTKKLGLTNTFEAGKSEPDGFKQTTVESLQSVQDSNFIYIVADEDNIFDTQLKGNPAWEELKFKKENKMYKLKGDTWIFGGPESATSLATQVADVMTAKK

[2] = target: T2, YxeB (Bc_0383) (Bacillus cereus, UniProt Q81IK3); assay type: binding, B. cereus ATCC 14579; settings: for Kd: pH 7
T2 sequence (Q81IK3 20-306): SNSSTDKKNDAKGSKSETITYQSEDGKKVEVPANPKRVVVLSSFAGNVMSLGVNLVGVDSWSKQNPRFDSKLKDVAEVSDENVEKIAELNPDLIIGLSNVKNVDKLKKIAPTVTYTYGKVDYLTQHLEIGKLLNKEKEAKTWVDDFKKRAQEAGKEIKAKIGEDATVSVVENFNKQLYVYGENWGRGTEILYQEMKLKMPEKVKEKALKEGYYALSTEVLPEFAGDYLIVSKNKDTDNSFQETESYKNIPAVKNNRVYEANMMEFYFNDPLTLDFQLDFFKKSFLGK

[3] = system: B. cereus ATCC 14579; assay type: cell-based, Bacillus cereus
[4] = target: T1, FpuA (Bc_4528); settings: pH 6.8
[5] = system: B. cereus ATCC 14579; assay type: cell-based, Bacillus cereus; remark: listed apart in the source
[6] = target: T3, FatB (Bc_5106) (Bacillus cereus, UniProt Q815N5); settings: pH 6.8
T3 sequence (Q815N5 24-338): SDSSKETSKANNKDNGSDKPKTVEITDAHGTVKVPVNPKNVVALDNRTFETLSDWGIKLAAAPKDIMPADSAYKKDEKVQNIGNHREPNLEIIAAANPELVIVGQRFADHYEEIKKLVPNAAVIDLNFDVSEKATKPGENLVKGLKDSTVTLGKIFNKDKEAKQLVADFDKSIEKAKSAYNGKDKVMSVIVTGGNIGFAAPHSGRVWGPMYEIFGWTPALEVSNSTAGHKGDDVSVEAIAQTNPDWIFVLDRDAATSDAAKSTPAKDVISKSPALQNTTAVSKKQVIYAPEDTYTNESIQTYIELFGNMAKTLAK

[7] = target: T3, FatB (Bc_5106); assay type: binding, B. cereus ATCC 14579
[8] = target: T4, FeuA (Bc_3738) (Bacillus cereus, UniProt Q81A53); assay: biochemical; assay type: binding, B. cereus ATCC 14579
T4 sequence (Q81A53 22-321): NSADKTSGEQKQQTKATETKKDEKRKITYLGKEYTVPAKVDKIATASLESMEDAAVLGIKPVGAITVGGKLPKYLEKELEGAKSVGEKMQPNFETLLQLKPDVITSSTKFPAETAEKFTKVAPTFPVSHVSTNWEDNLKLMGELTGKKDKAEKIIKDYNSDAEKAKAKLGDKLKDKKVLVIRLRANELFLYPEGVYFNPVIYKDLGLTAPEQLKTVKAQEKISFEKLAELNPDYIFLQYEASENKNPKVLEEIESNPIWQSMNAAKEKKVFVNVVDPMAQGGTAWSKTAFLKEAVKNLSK

## CC(=O)N(O)CCCNC(=O)CC(O)(CC(=O)NCCCN(O)C(C)=O)C(=O)O [Sch, schizokinen]
[1]
  ligand recognition by FpuA: binding incompatibility

## CC(=O)N(O)CCC[C@@H]1NC(=O)CNC(=O)CNC(=O)CNC(=O)[C@H](CCCN(O)C(C)=O)NC(=O)[C@H](CCCN(O)C(C)=O)NC1=O.[Fe+3] [FeFch] (cyclo(GGG[Orn(N5-OH,N5-Ac)][Orn(N5-OH,N5-Ac)][Orn(N5-OH,N5-Ac)]))
[2]
  Kd: 30 nM
[3]
  effect on uptake of ^55FeDFO: inhibited

## O=C(O)c1ccc(O)c(O)c1 [3,4-DHB, 3,4-dihydroxybenzoic acid]
[4]
  noncovalent complex with FpuA by ESI-MS (Molecular weight Measured): not observed
[1]
  ligand recognition by FpuA: not specifically quenched
[5]
  Km: 400 ± 100 nM
  vmax: 2.3 ± 0.1 pmol Fe mL^-1 min^-1
[3]
  effect on uptake of radioactive ferric PB: inhibited
  effect on uptake of radioactive ferric PB^ν: inhibited

## ferric citrate
[6]
  noncovalent complex with FatB by ESI-MS (Molecular weight Measured): no protein-ligand complexes were detected
[4]
  noncovalent complex with FpuA by ESI-MS (Molecular weight Measured): no protein-ligand complexes were detected
[1]
  ligand recognition by FpuA: no recognition
[7]
  ligand recognition by FatB: no recognition

## C[C@H]1OC(=O)[C@@H](NC(=O)CNC(=O)c2cccc(O)c2O)[C@@H](C)OC(=O)[C@@H](NC(=O)CNC(=O)c2cccc(O)c2O)[C@@H](C)OC(=O)[C@H]1NC(=O)CNC(=O)c1cccc(O)c1O [BB, bacillibactin]
[8]; pH 7
  Kd: 59 nM
[7]
  ligand recognition by FatB: binding incompatibility; also recorded: no affinity

## CC(=O)N(O)CCCCCNC(=O)CCC(=O)N(O)CCCCCNC(=O)CCC(=O)N(O)CCCCCN.[Fe+3] [FeDFO]
[2]
  Kd: 18 nM
[3]
  effect on transport of ^55FeFch: inhibited

## O=C(N[C@H]1COC(=O)[C@@H](NC(=O)c2cccc(O)c2O)COC(=O)[C@@H](NC(=O)c2cccc(O)c2O)COC1=O)c1cccc(O)c1O [Ent, enterobactin]
[8]
  Kd: 36 nM

## CC(=O)N(O)CCCCCNC(=O)CCC(=O)N(O)CCCCCNC(=O)CCC(=O)N(O)CCCCCN [DFO, desferrioxamine B]
[2]
  change of YxeB fluorescence on binding: increase of SBP fluorescence

## FeEnt
[8]; pH 7
  Kd: 12 nM

## O=C(CC(O)(CC(=O)NCCCCNCCCNC(=O)c1ccc(O)c(O)c1)C(=O)O)NCCCCNCCCNC(=O)c1ccc(O)c(O)c1 [PB, petrobactin]
[6]
  noncovalent complex with FatB by ESI-MS (Molecular weight Measured): not observed
[4]
  noncovalent complex with FpuA by ESI-MS (Molecular weight Measured): not observed
[1]; pH 7
  Kd: 23 nM
[3]
  effect on incorporation of radioactive ferric Ent: only slightly affected
  effect on uptake of radioactive ferric 3,4-DHB: inhibited
  effect on uptake of radioactive ferric PB: inhibited
  effect on uptake of radioactive ferric PB^ν: inhibited

## CC(=O)N([O-])CCC[C@@H]1NC(=O)CNC(=O)CNC(=O)CNC(=O)[C@H](CCCN([O-])C(C)=O)NC(=O)[C@H](CCCN([O-])C(C)=O)NC1=O.[Fe+3] [Fch, ferrichrome] (cyclo(GGG[Orn(N5-OH,N5-Ac)][Orn(N5-OH,N5-Ac)][Orn(N5-OH,N5-Ac)]))
[2]
  change of YxeB fluorescence on binding: increase of SBP fluorescence
[4]
  noncovalent complex with FpuA by ESI-MS (Molecular weight Measured): no protein-ligand complexes were detected
[1]
  binding of the aposiderophore to FpuA: did not bind
  unspecific protein emission quenching of FpuA: 10-20%
